EC50 data for 10 molecules are collected here from patent US9655888B2, “Tricyclic alkene derivatives as HIV attachment inhibitors” (priority 2012, dated 2017).

The assay has as its system HIV-1 LAI envelope single-round infectious reporter virus. Description: Single-round infectious HIV-1 LAI luciferase reporter virus infection of MT2 cells. To be noted: Human immunodeficiency virus 1, MT2, 72 h. In kind it is cell-based. The text has this:
• Virus production—Human embryonic Kidney cell line, 293T (HEK 293T), was propagated in Dulbecco's Modified Eagle Medium (Invitrogen, Carlsbad, Calif.) containing 10% fetal bovine serum (FBS, Sigma, St. Louis, Mo.). The human T-cell leukemia cell MT2 (AIDS Research and Reference Reagent Program, Cat. 237) was propagated in RPMI 1640 (Invitrogen, Carlsbad, Calif.) containing 10% fetal bovine serum (FBS, Hyclone, Logan, Utah) • Virus infection—Single-round infectious reporter virus was produced by co-transfecting HEK 293T cells with plasmide expressing the HIV-1 LAI envelope along with a plasmid containing an HIV-1 LAI proviral cDNA with the envelope gene replaced by a firefly luciferase reporter gene (Chen et al., Ref 41). Transfections were performed using lipofectAMINE PLUS reagent as described by the manufacturer (Invitrogen, Carlsbad, Calif.). Experimental Procedure • 1. MT2 cells were plated in black, 384 well plates at a cell density of 5×10^3 cells per well in 25 μl RPMI 1640 containing 10% FBS. • 2. Compound (diluted in dimethylsulfoxide and growth medium) was added to cells at 12.5 μl/well, so that the final assay concentration would be ≦50 nM. • 3. 12.5 μl of single-round infectious reporter virus in Dulbecco's Modified Eagle Medium was added to the plated cells and compound at an approximate multiplicity of infection (MOI) of 0.01, resulting in a final volume of 50 μl per well. • 4. Virus-infected cells were incubated at 37 degrees Celsius in a CO2 incubator and harvested 72 h after infection. • 5. Viral infection was monitored by measuring luciferase expression in the infected cells using a luciferase reporter gene assay kit (Steady-Glo, Promega, Madison, Wis.) as described by the manufacturer. Luciferase activity was then quantified by measuring luminescence using an EnVision Multilabel Plate Readers (PerkinElmer, Waltham, Mass.). • 6. The percent inhibition for each compound was calculated by quantifying the level of luciferase expression in cells infected in the presence of each compound as a percentage of that observed for cells infected in the absence of compound and subtracting such a determined value from 100. • 7. An EC50 provides a method for comparing the antiviral potency of the compounds of the invention. The effective concentration for fifty percent inhibition (EC50) was calculated with the Microsoft Excel Xlfit curve fitting software. For each compound, curves were generated from percent inhibition calculated at 10 different concentrations by using a four parameter logistic model (model 205). Table 1 is the key for the data in Table 2.
On the technique in general: In a reporter assay the amount or activity of a reporter protein is the signal.

Where [1] appears, read: read-out: EC50 Group from Table 1.

Where two headings read alike, the source gives them in different places.

As a reminder, the EC50 is the concentration at which the effect is half-maximal. For `COc1cnc(-n2cnc(C)n2)c2[nH]cc(C(=O)C(=O)N3CCC(=C4c5ccccc5C=Cc5ccccc54)CC3)c12` [Compound 1001], a half-maximal response (EC50) required 0.28 nM. Besides, under setting [1], the EC50 is below 500 nM.
For `COc1cnc(Cl)c2[nH]cc(C(=O)C(=O)N3CCC(=C4c5ccc(Cl)cc5CCc5cccnc54)CC3)c12` [Compound 1002], the EC50 under setting [1] is below 500 nM.
As for `O=C(C(=O)N1CCC(=C2c3ccccc3CCc3ccccc32)CC1)c1c[nH]c2ccccc12` [Compound 1003], the response was half-maximal at 692 nM (EC50). Further, the concentration giving a half-maximal response (EC50) under setting [1] is above 500 nM.
Regarding `COc1cnc(Cl)c2[nH]cc(C(=O)C(=O)N3CCC(=C4c5ccccc5CCc5ccccc54)CC3)c12` [Compound 1004], under setting [1], the EC50 was below 500 nM.
For the molecule `COc1cnc(-n2cncn2)c2[nH]cc(C(=O)C(=O)N3CCC(=C4c5ccccc5CCc5ccccc54)CC3)c12` [Compound 1005], under setting [1], the half-maximal effective concentration (EC50) is below 500 nM.
`COc1ccc(Br)c2[nH]cc(C(=O)C(=O)N3CCC(=C4c5ccccc5CCc5ccccc54)CC3)c12` [Compound 1006] returned an EC50 of 95.3 nM. In addition, the EC50 under setting [1] was below 500 nM.
On to `O=C(C(=O)N1CCC(=C2c3ccccc3CCc3ccccc32)CC1)c1c[nH]c2c(Br)ccc(F)c12` [Compound 1007], for which, under setting [1], the 50% effective concentration (EC50) is above 500 nM.
For `O=C(C(=O)N1CCC(=C2c3ccc(Cl)cc3CCc3cccnc32)CC1)c1c[nH]c2c(Br)ccc(F)c12` [Compound 1008], the EC50 under setting [1] was above 500 nM.
The molecule `COc1cnc(-n2cnc(C)n2)c2[nH]cc(C(=O)C(=O)N3CCC(=C4c5ccccc5CCc5ccccc54)CC3)c12` [Compound 1009] displayed an EC50 of 3.72 nM. Also, under setting [1], the concentration giving a half-maximal response (EC50) is below 500 nM.
On to `COc1cnc(-n2cnc(C)n2)c2[nH]cc(C(=O)C(=O)N3CCC(=C4c5ccc(Cl)cc5CCc5cccnc54)CC3)c12` [Compound 1010], for which the 50% effective concentration (EC50) under setting [1] is below 500 nM.
